Values of other authors, collected in patent publication US20030198685A1 (priority 2002, published 2003).
Where two headings read alike, the source gives them in different places.

How the values were obtained:
[1] = tested on: prostate and seminal vesicle weights; levator ani muscles
[2] = Caucasian group of hypogonadal men
[3] = nandrolone use
[4] = female rats, constant infusion
[5] = patients on dialysis
[6] = not given; remark: listed apart in the source
[7] = after supplementation
[8] = not given; remark: listed apart in the source
[9] = 300 mg/wk for six weeks
[10] = tested on: androgen receptor; conditions: seminal vesicle; parent versus 5-alpha-reduced metabolite
[11] = pharmacological doses, HIV-infected men

SMILES: C[C@@H]1CC2=CC(=O)CC[C@@H]2[C@H]2CC[C@]3(C)[C@@H](O)CC[C@H]3[C@@H]21 [MENT, 7α-methyl-19-nor-testosterone]
- androgenic potency relative to testosterone ([1]; measured by prostate and seminal vesicle weights): four- to five-times
- anabolic potency relative to testosterone ([1]; measured in the levator ani muscles): ten-times
- sexual interest and activity, spontaneous erection [2]: significant increases

SMILES: C[C@]12CC[C@H]3[C@@H](CCC4=CC(=O)CC[C@@H]43)[C@@H]1CC[C@@H]2O [nandrolone, 19-nor-testosterone]
- decrease in HDL-cholesterol (body builders): 25-27%
- lean body mass (body builders ingesting nandrolone): Superior increases
- effect on sperm [3]: azoospermia
- energy expenditure [4]: increased
- lean body mass compared with placebo [5]: increased significantly

SMILES: C[C@]12CC[C@H](O)CC1=CC[C@@H]1[C@@H]2CC[C@]2(C)C(=O)CC[C@@H]12 [DHEA, dehydro-epiandrosterone]
- plasma testosterone ([6]; 50 mg dose of DHEA): levels similar to those observed in young women
- increase of plasma delta 4-androstenedione ([6]; 50 mg or 200 mg DHEA): significant and dose dependent
- plasma estrogens, particularly estradiol ([6]; 50 mg or 200 mg DHEA): significant and dose dependent increase
- plasma testosterone ([6]; 200 mg dose of DHEA): slightly below the levels observed in normal men
- increase of plasma dihydrotestosterone levels ([6]; both doses of DHEA): small

SMILES: C[C@]12CC[C@H]3[C@@H](CCC4=C[C@@H](O)CC[C@@]43C)[C@@H]1CC[C@@H]2O [4-androstenediol]
- urine testosterone concentration relative to 4-androstenedione [7]: 10 fold
- human serum testosterone levels ([8]; human): elevations

SMILES: C[C@]12CC[C@H]3[C@@H](CC=C4C[C@@H](O)CC[C@@]43C)[C@@H]1CC[C@@H]2O [5-androstenediol]
- proportion of protein in the body composition [4]: increased

SMILES: CCCCCCC(=O)O[C@H]1CC[C@H]2[C@@H]3CCC4=CC(=O)CC[C@]4(C)[C@H]3CC[C@]12C [TE, testosterone enanthate]
- body circumferences with significant increases (of fifteen) [9]: shoulders
- sexual interest and activity, spontaneous erection [2]: significant increases

SMILES: C[C@]12CC[C@H]3[C@@H](CCC4=CC(=O)CC[C@@]43C)[C@@H]1CC[C@@H]2O [testosterone]
- change of affinity to the androgen receptor on 5-alpha-reduction [10]: increasing by seven- to eight-fold
- proportion of protein in the body composition [4]: increased

SMILES: C[C@]12CCC(=O)C=C1CC[C@@H]1[C@@H]2CC[C@]2(C)C(=O)CC[C@@H]12 [4-androstenedione]
- serum testosterone ([8]; supplementation): elevations

SMILES: CCCCCCCCCC(=O)O[C@H]1CC[C@H]2[C@@H]3CCC4=CC(=O)CC[C@@H]4[C@H]3CC[C@]12C [nandrolone decanoate, 19-nor-testosterone decanoate]
- body circumferences with significant increases (of fifteen) [9]: shoulders and chest
- total weight, lean body mass, body cell mass, muscle size and strength [11]: significant gains
